From ChEMBL document CHEMBL1201862, “PubChem BioAssay data set” (2004)
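Growth conditions: 96-well plates. Treatment: test compound, 48 hours, 5 concentrations. Analysis: linear interpolation between bracketing concentrations; unreached endpoints set to highest concentration. Abbreviation: GI50, concentration required for 50% inhibition of growth.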 Calls of active or inactive are those of the source. Rule as the data show it: active = GI50 up to about 1.1 µM and inactive = higher.

How the values were obtained:
Experiment in all cases: growth of human tumour cells (NCI), 48 h
CAKI-1 = test system: CAKI-1
COLO 205 = test system: COLO 205
UACC-257 = test system: UACC-257
SF-539 = test system: SF-539
SR = test system: SR
HCC 2998 = test system: HCC 2998
NCI/ADR-RES = test system: NCI/ADR-RES
HOP-62 = test system: HOP-62
CCRF-CEM = test system: CCRF-CEM
RPMI-8226 = test system: RPMI-8226
HOP-92 = test system: HOP-92
NCI-H23 = test system: NCI-H23
OVCAR-8 = test system: OVCAR-8
MCF7 = test system: MCF7
A549 = test system: A549
LOX IMVI = test system: LOX IMVI
UO-31 = test system: UO-31
SNB-19 = test system: SNB-19
HCT-15 = test system: HCT-15
BT-549 = test system: BT-549

SMILES	GI50 (CAKI-1)	GI50 (COLO 205)	GI50 (UACC-257)	GI50 (SF-539)	GI50 (SR)	GI50 (HCC 2998)	GI50 (NCI/ADR-RES)	GI50 (HOP-62)	GI50 (CCRF-CEM)	GI50 (RPMI-8226)	GI50 (HOP-92)	GI50 (NCI-H23)	GI50 (OVCAR-8)	GI50 (MCF7)	GI50 (A549)	GI50 (LOX IMVI)	GI50 (UO-31)	GI50 (SNB-19)	GI50 (HCT-15)	GI50 (BT-549)
CN(NC(=O)/C(=C/c1ccc(O)cc1)NC(=O)c1ccccc1)c1ccnc2cc(Cl)ccc12	19.3 µM (inactive)	17.5 µM (inactive)	17.8 µM (inactive)	23 µM (inactive)	3.08 µM (inactive)	18.1 µM (inactive)	14.5 µM (inactive)	15.1 µM (inactive)	17.3 µM (inactive)	13.4 µM (inactive)	17.3 µM (inactive)	> 10 µM (inactive)	17.8 µM (inactive)	13.6 µM (inactive)	19.6 µM (inactive)	18.8 µM (inactive)	5.85 µM (inactive)	17.2 µM (inactive)	–	–
C[C@]12C(=O)C=CCC1=CC[C@@H]1[C@@H]2[C@H]2CC3(O)C(=O)O[C@@]4(C)[C@H]5C[C@@]6(C)[C@@H]7[C@@]2(O)[C@]1(OC[C@H]6C(=O)O5)O[C@]734 (some centres not stated)	40.7 µM (inactive)	39.6 µM (inactive)	59.4 µM (inactive)	17.7 µM (inactive)	28.4 µM (inactive)	–	> 100 µM (inactive)	–	20.8 µM (inactive)	34.8 µM (inactive)	68.4 µM (inactive)	24.2 µM (inactive)	28.4 µM (inactive)	31.7 µM (inactive)	> 100 µM (inactive)	27.4 µM (inactive)	> 100 µM (inactive)	62.4 µM (inactive)	53.7 µM	–
CCO/C=N\C1=C(C#N)SC2=N/C(=C\c3ccco3)C(=O)N21	> 100 µM (inactive)	> 100 µM (inactive)	> 100 µM (inactive)	> 100 µM (inactive)	> 100 µM (inactive)	> 100 µM (inactive)	> 100 µM (inactive)	> 100 µM (inactive)	> 100 µM (inactive)	> 100 µM (inactive)	> 100 µM (inactive)	> 100 µM (inactive)	> 100 µM (inactive)	> 100 µM (inactive)	> 100 µM (inactive)	> 100 µM (inactive)	> 100 µM (inactive)	> 100 µM (inactive)	> 100 µM	–
COC1=CC(=O)c2c(O)c3c(c(O)c2C1=O)OC1(Oc2c(cc4cc(C)oc(=O)c4c2O)CC1O)C3O (configuration not stated)	21.7 µM (inactive)	32.8 µM (inactive)	40.6 µM (inactive)	44.5 µM (inactive)	> 100 µM (inactive)	28.9 µM (inactive)	46.9 µM (inactive)	35.2 µM (inactive)	30.1 µM (inactive)	29.4 µM (inactive)	> 100 µM (inactive)	35.6 µM (inactive)	40.4 µM (inactive)	43.9 µM (inactive)	45.2 µM (inactive)	30.1 µM (inactive)	55.7 µM (inactive)	20.9 µM (inactive)	29 µM	–
CC12CC(C/C1=N/O)C(C)(C)C2 (configuration not stated)	> 100 µM (inactive)	> 100 µM (inactive)	> 100 µM (inactive)	> 100 µM (inactive)	–	> 100 µM (inactive)	–	> 100 µM (inactive)	> 100 µM (inactive)	–	> 100 µM (inactive)	> 100 µM (inactive)	> 100 µM (inactive)	> 100 µM (inactive)	> 100 µM (inactive)	–	> 100 µM (inactive)	> 100 µM (inactive)	–	> 100 µM (inactive)
CC1CN=C(N(C(=O)Nc2ccccc2)c2ccc(Cl)c(Cl)c2)S1 (configuration not stated)	27.9 µM (inactive)	> 10 µM (inactive)	32.2 µM (inactive)	40.5 µM (inactive)	24.4 µM (inactive)	24.8 µM (inactive)	20.7 µM (inactive)	97.3 µM (inactive)	> 10 µM (inactive)	41.3 µM (inactive)	17.1 µM (inactive)	32.8 µM (inactive)	35.6 µM (inactive)	19.8 µM (inactive)	25.9 µM (inactive)	25.9 µM (inactive)	24.8 µM (inactive)	70.6 µM (inactive)	23.2 µM	–
COc1ccc(/N=C2\C(=O)Nc3ccc(Br)cc32)cc1	14.4 µM (inactive)	15.7 µM (inactive)	20.7 µM (inactive)	16.5 µM (inactive)	3.58 µM (inactive)	19.2 µM (inactive)	18.7 µM (inactive)	29.2 µM (inactive)	13.4 µM (inactive)	5.83 µM (inactive)	18.2 µM (inactive)	18.2 µM (inactive)	14.9 µM (inactive)	14.6 µM (inactive)	24.2 µM (inactive)	10.1 µM (inactive)	9.82 µM (inactive)	33.4 µM (inactive)	14.3 µM	–
CC[S+]([O-])C(=O)N(O)c1ccc(Cl)cc1 (configuration not stated)	17.7 µM (inactive)	36 µM (inactive)	23.2 µM (inactive)	24.9 µM (inactive)	–	43.3 µM (inactive)	24.9 µM (inactive)	> 100 µM (inactive)	12.6 µM (inactive)	1.24 µM (inactive)	29.9 µM (inactive)	–	–	20.4 µM (inactive)	67.3 µM (inactive)	11.7 µM (inactive)	14.5 µM (inactive)	60.7 µM (inactive)	23.8 µM	–
COc1cc(/C=C2\CCC(C)c3c2nc(N)c(C#N)c3-c2cc(OC)c(OC)c(OC)c2)cc(OC)c1OC (configuration not stated)	> 100 µM (inactive)	–	> 100 µM (inactive)	–	25.8 µM (inactive)	–	–	> 100 µM (inactive)	23.7 µM (inactive)	56.2 µM (inactive)	67.5 µM (inactive)	–	13.2 µM (inactive)	29.9 µM (inactive)	> 100 µM (inactive)	41.5 µM (inactive)	–	54 µM (inactive)	27.1 µM	–
CC(C)Oc1c(C2(c3ccccc3O)SCCCS2)c(=O)c1=O	> 100 µM (inactive)	> 100 µM (inactive)	> 100 µM (inactive)	> 100 µM (inactive)	–	–	> 100 µM (inactive)	> 100 µM (inactive)	20.5 µM (inactive)	–	19.7 µM (inactive)	89.3 µM (inactive)	> 100 µM (inactive)	> 100 µM (inactive)	> 100 µM (inactive)	> 100 µM (inactive)	47.9 µM (inactive)	73.3 µM (inactive)	> 100 µM	42.5 µM (inactive)
CCOC(CNc1nn2c(C)nnc2s1)OCC	> 100 µM (inactive)	> 100 µM (inactive)	> 100 µM (inactive)	> 100 µM (inactive)	> 100 µM (inactive)	> 100 µM (inactive)	> 100 µM (inactive)	> 100 µM (inactive)	> 100 µM (inactive)	> 100 µM (inactive)	> 100 µM (inactive)	> 100 µM (inactive)	> 100 µM (inactive)	> 100 µM (inactive)	> 100 µM (inactive)	> 100 µM (inactive)	–	> 100 µM (inactive)	> 100 µM	–
C[C@H](C/C=C/C(C)(C)O)[C@H]1CC[C@@]2(C)[C@@H]3CC[C@H]4C(C)(C)[C@@H](O)CC[C@@]45C[C@@]35CC[C@]12C	–	–	17.9 µM (inactive)	16.8 µM (inactive)	–	–	5.14 µM (inactive)	13.6 µM (inactive)	–	15.8 µM (inactive)	11.3 µM (inactive)	–	14.8 µM (inactive)	35.2 µM (inactive)	14.7 µM (inactive)	11.7 µM (inactive)	23.3 µM (inactive)	25.5 µM (inactive)	17.1 µM	34.1 µM (inactive)
Cc1nn(CNc2ccc(F)c(Cl)c2)c(=S)n1/N=C/c1ccc(-c2ccc(Cl)cc2Cl)o1	16.8 µM (inactive)	–	22.3 µM (inactive)	16.8 µM (inactive)	1.4 µM (inactive)	–	19.3 µM (inactive)	14.1 µM (inactive)	4.16 µM (inactive)	14.8 µM (inactive)	–	20.1 µM (inactive)	20.8 µM (inactive)	18.2 µM (inactive)	–	16.6 µM (inactive)	16.7 µM (inactive)	–	16.9 µM	–
CCCCCCC(C)CC(CCCCCC)NCCOC(=O)c1ccc([N+](=O)[O-])cc1 (configuration not stated)	–	3.18 µM (inactive)	4.98 µM (inactive)	13 µM (inactive)	–	2.02 µM (inactive)	13.4 µM (inactive)	14.3 µM (inactive)	4.52 µM (inactive)	–	5.82 µM (inactive)	14.6 µM (inactive)	5.66 µM (inactive)	7.16 µM (inactive)	15.1 µM (inactive)	4.12 µM (inactive)	10.4 µM (inactive)	15.6 µM (inactive)	10.1 µM	15.4 µM (inactive)
C=C1CC(c2ccc(OCCCN3C(=O)c4ccccc4C3=O)cc2)OC1=O (configuration not stated)	2.37 µM (inactive)	1.91 µM (inactive)	2.19 µM (inactive)	0.123 µM (active)	3.05 µM (inactive)	3.78 µM (inactive)	8.09 µM (inactive)	16.4 µM (inactive)	1.64 µM (inactive)	1.12 µM (inactive)	1.36 µM (inactive)	2.35 µM (inactive)	2.71 µM (inactive)	1.42 µM (inactive)	16 µM (inactive)	1.36 µM (inactive)	3.74 µM (inactive)	7.38 µM (inactive)	2.36 µM	–
CSc1nc(O)c(C#N)c(-c2ccccc2)n1	> 100 µM (inactive)	> 100 µM (inactive)	> 100 µM (inactive)	> 100 µM (inactive)	–	> 100 µM (inactive)	> 100 µM (inactive)	> 100 µM (inactive)	> 100 µM (inactive)	> 100 µM (inactive)	97.5 µM (inactive)	> 100 µM (inactive)	> 100 µM (inactive)	> 100 µM (inactive)	> 100 µM (inactive)	–	78.3 µM (inactive)	> 100 µM (inactive)	> 100 µM	> 100 µM (inactive)
